# “And” between values parts separate entries of the source, which are not always exact repeats. Equal values may be shown once.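 Cells were grown in 96-well plates and exposed to each compound for 48 hours at five concentrations; endpoints were interpolated linearly between bracketing concentrations, or set to the highest concentration if not reached. At the GI50, growth is halved. TGI: concentration producing complete growth inhibition.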
# Assays:
# Test in all cases: inhibition of tumour cell growth, NCI panel, 48 h
# [1] = system: HCC-2998 colon
# [2] = system: HOP-62 NSCLC
# [3] = system: LOX IMVI melanoma
# [4] = system: MOLT-4 leukemia
# [5] = system: RPMI-8226 leukemia
# [6] = system: RXF 393 renal
# [7] = system: SK-OV-3 ovarian
# [8] = system: SNB-19 CNS
# [9] = system: SW-620 colon
# [10] = system: T-47D breast
SMILES,TGI [1],TGI [2],TGI [3],TGI [4],TGI [5],TGI [6],TGI [7],TGI [8],TGI [9],TGI [10],GI50 [1],GI50 [2],GI50 [3],GI50 [4],GI50 [5],GI50 [6],GI50 [7],GI50 [8],GI50 [9],GI50 [10]
CC(=O)O[C@H]1C(=O)[C@@]2(C)C(C(OC(=O)c3ccccc3)[C@]3(O)C[C@H](OC(=O)C(OC(=O)CCCC(=O)NCCCN(C)C)C(NC(=O)c4ccccc4)c4ccccc4)C(C)=C1C3(C)C)C1(OC(C)=O)COC1C[C@@H]2O (stereo partly drawn),0.0309 µM,11.4 µM,19.2 µM,12.5 µM,28.7 µM,3.27 µM,1.45 µM,> 100 µM,22.4 µM,47.8 µM,,,,,,,,,,
O=Nc1ccc(O)c(=O)cc1,13.5 µM,23.2 µM,7.67 µM,20.8 µM,3.97 µM,1.59 µM,37.3 µM,27.3 µM,2.35 µM,4.28 µM,3.35 µM,7.45 µM,2.16 µM,0.821 µM,1.05 µM,0.572 µM,16.2 µM,13.5 µM,0.657 µM,1.76 µM
CC(C)(C)c1ccc(S(=O)(=O)Oc2ccc3c4c(c(=O)oc3c2)CCCCC4)cc1,> 100 µM,46.2 µM,> 100 µM,> 100 µM,> 100 µM,63.5 µM,52.2 µM,52.1 µM,> 100 µM,> 100 µM,> 100 µM,21.5 µM,32.5 µM,> 100 µM,3.18 µM,17.8 µM,19.7 µM,16.4 µM,85.6 µM,5.17 µM
C=C1CC[C@@H]2[C@](C)(COC(C)=O)[C@H](OC(C)=O)CC[C@@]2(C)[C@@H]1CC(Nc1ccc(S(=O)(=O)NC(C)=O)cc1)C1=CCOC1=O (stereo partly drawn),17.3 µM,21.1 µM,2.42 µM,6.66 µM,6.53 µM,4.69 µM,18.7 µM,18.9 µM,3.58 µM,12 µM,7.51 µM,10.8 µM,1.25 µM,2.2 µM,1.84 µM,1.96 µM,9.31 µM,8.19 µM,1.61 µM,2.46 µM
O=C(Cc1ccc(/C=C/C(=O)c2ncc[nH]2)cc1)Nc1ccc(F)cc1,10.9 µM,12.7 µM,4.72 µM,> 33.3 µM,7.46 µM,8.92 µM,> 33.3 µM,14.9 µM,6.78 µM,24.6 µM,5.43 µM,2.64 µM,1.07 µM,5.74 µM,1.27 µM,3.44 µM,9.38 µM,1.58 µM,1.43 µM,3.33 µM
CC(=O)Nc1ccc2c(c1)C(c1ccccc1Cl)=Nc1c(n[nH]c1C)N2,> 25 µM,> 25 µM,> 25 µM,> 25 µM,> 25 µM,9.59 µM,> 25 µM,> 25 µM,> 25 µM,> 23.6 µM,16.7 µM,5.74 µM,2.75 µM,9.75 µM,> 25 µM,1.02 µM,> 25 µM,6.36 µM,1.55 µM,8.38 µM
COc1cc2c(cc1OC)[C@@H](Nc1ccc(C#N)cc1)C1COC(=O)[C@@H]1C2c1cc(OC)c(O)c(OC)c1 (stereo partly drawn),,0.325 µM and 0.492 µM,,,0.225 µM and 0.65 µM,35.9 µM,,95 µM,18.8 µM and > 100 µM,> 100 µM,0.665 µM and 2.72 µM,0.0277 µM and 0.0929 µM,,,,,0.195 µM and 0.548 µM,,,
COc1ccc2c(c1OC)C[C@@H]1c3c(cc4c(c3-2)OCO4)CCN1C,40.3 µM,> 100 µM,29.1 µM,47.4 µM,42.9 µM,66.4 µM,58.4 µM,> 100 µM,> 100 µM,90.2 µM,,,,,,,,,,
O=c1c2c(=NCCN3CCCC3)cc3c(=O)n(CCCN4CCOCC4)c(=O)c4c(-c5ccc(CN6CCCC6)cc5)cc(c(O)n1CCCN1CCOCC1)c2c4-3,0.284 µM,0.221 µM,0.234 µM,5.37 µM,0.409 µM,0.0779 µM,1.43 µM,1.2 µM,0.342 µM,0.897 µM,0.0556 µM,0.0255 µM,0.0369 µM,< 0.0206 µM,0.0368 µM,0.0204 µM,0.086 µM,0.054 µM,0.0186 µM,0.1 µM
COc1ccc(C2=N[C@@H](Cc3ccccc3)C(=O)Nc3ccsc32)cc1,25.8 µM,19.1 µM,22 µM,19.3 µM,18.8 µM,9.6 µM,17.3 µM,58.3 µM,27.9 µM,48.4 µM,12 µM,5.81 µM,6.48 µM,3.98 µM,3.29 µM,2.75 µM,4.56 µM,9.93 µM,4.38 µM,5.64 µM
CCN1C(=S)N(c2ccccc2)C2NC(=S)N(/N=C/C=C/c3ccccc3OC)C21 (stereo not drawn),> 100 µM,> 100 µM,> 100 µM,> 100 µM,> 24.8 µM,0.65 µM,> 100 µM,> 100 µM,> 100 µM,> 100 µM,0.538 µM,0.487 µM,0.482 µM,0.548 µM,0.377 µM,0.189 µM,0.647 µM,0.496 µM,0.404 µM,> 100 µM
COC(=O)c1n[nH]c(C)c1N=NN(C)CCC#N,44.1 µM,37 µM,> 100 µM,15.1 µM,34.9 µM,29.7 µM,61.5 µM,87 µM,34 µM,93 µM,,,,,,,,,,
CN(c1ncccc1CNc1nc(Nc2ccc3c(c2)CC(=O)N3)ncc1C(F)(F)F)S(C)(=O)=O,7.28 µM and 9.71 µM,> 30.1 µM,17.4 µM and 9.4 µM,7.47 µM and 7.55 µM,10.2 µM and 6.94 µM,3.98 µM and 4.08 µM,> 100 µM,> 100 µM,> 32.7 µM,> 33 µM and 9.35 µM,1.41 µM and 1.8 µM,2.58 µM and 2.59 µM,1.31 µM and 1.68 µM,2.9 µM and 2.67 µM,2.75 µM and 2.39 µM,1.61 µM and 1.48 µM,5.04 µM and 4.61 µM,2.75 µM and 2.89 µM,1.56 µM and 2.89 µM,3.22 µM and 2.72 µM
CC(N)C(Cc1ccc(Cl)cc1)c1ccc(Cl)cc1 (stereo not drawn),4.11 µM,28.4 µM,18.9 µM,31.4 µM,22.2 µM,25.5 µM,30.8 µM,29.5 µM,16.9 µM,26 µM,1.96 µM,13.1 µM,5.56 µM,13.6 µM,6.48 µM,11.7 µM,16.8 µM,14.1 µM,4.46 µM,10.7 µM
c1ccc([P+](CCSCCSCC[P+](c2ccccc2)(c2ccccc2)c2ccccc2)(c2ccccc2)c2ccccc2)cc1,> 100 µM,> 100 µM,,> 100 µM,,> 100 µM,> 100 µM,> 100 µM,> 100 µM,> 100 µM,,,,,,,,,,
CS(=O)(=O)Nc1cncc(-c2ccc3ncnc(Nc4ccc(F)c(Cl)c4)c3c2)c1,16.8 µM,20.2 µM,10.2 µM,4.65 µM,5.42 µM,5.87 µM,6.54 µM,18.1 µM,11.8 µM,2.5 µM,4.19 µM,2.51 µM,1.73 µM,1.6 µM,2.24 µM,1.49 µM,2.09 µM,2.09 µM,3.15 µM,0.189 µM
COc1ccc2c(c1)/C(=C\c1c(-c3cc(OC)ccc3OC)nc3sc(C)cn13)C(=O)N2C,> 100 µM,> 100 µM,83.5 µM,51.8 µM,58.4 µM,> 100 µM,> 100 µM,> 100 µM,> 100 µM,> 100 µM,59.7 µM,26.3 µM,23.9 µM,14.1 µM,9.13 µM,> 100 µM,28 µM,58.9 µM,42.6 µM,29.7 µM
O=c1[nH]c2ccccc2c2ccccc12,> 100 µM,> 100 µM,> 100 µM,> 100 µM,> 100 µM,> 100 µM,> 100 µM,> 100 µM,> 100 µM,> 100 µM,> 100 µM,> 100 µM,> 100 µM,> 100 µM,> 100 µM,> 100 µM,23.6 µM,> 100 µM,> 100 µM,> 100 µM
NNC(=S)N/N=C(\C(=O)Nc1cccc(O)c1)C1C(=O)NC(=S)NC1=O,> 100 µM,> 100 µM,> 100 µM,> 100 µM,> 100 µM,> 100 µM,> 100 µM,> 100 µM,> 100 µM,> 100 µM,,,,,,,,,,
COc1ccc(/C=C/C(=O)c2cc(OC)c(OC)c(OC)c2)cc1OCC(=O)Nc1nc2ccc(OC(F)(F)F)cc2s1,25.1 µM,4.33 µM,1.95 µM,> 100 µM,> 100 µM,3.74 µM,5.07 µM,51.8 µM,> 100 µM,10.9 µM,6.18 µM,2.12 µM,0.47 µM,2.89 µM,2.02 µM,1.58 µM,2.16 µM,1.58 µM,1.08 µM,3.08 µM
O=C1CSCc2sccc21,> 100 µM,> 100 µM,,> 100 µM,,> 100 µM,> 100 µM,> 100 µM,> 100 µM,> 100 µM,,,,,,,,,,
COc1cc(/C=C\c2cc(OC)c(OC)c(OC)c2)cc(N/C=C\C(=O)c2ccc(OC(F)(F)F)cc2)c1OC,> 100 µM,> 100 µM,> 100 µM,> 100 µM,19.6 µM,7.17 µM,> 100 µM,> 100 µM,> 100 µM,> 100 µM,3.71 µM,7.85 µM,5.95 µM,3.99 µM,3.66 µM,2.18 µM,5.38 µM,4.97 µM,4.09 µM,4.16 µM
CC(C)(CN1CCCCC1)C(=O)/C=C/c1ccc(/C=C/C(=O)C(C)(C)CN2CCCCC2)cc1,1.07 µM,2.19 µM,0.856 µM,0.33 µM,0.663 µM,0.745 µM,2.91 µM,3.15 µM,0.463 µM,1.65 µM,,,,,,,,,,
C/C(=N\NC(=S)N1CCCCC1)c1ccccn1,6.93 µM,3.54 µM,9.03 µM,1.69 µM,0.849 µM,1.79 µM,1.94 µM,14.5 µM,7.18 µM,5.15 µM,0.243 µM,< 0.016 µM,< 0.0106 µM,0.0175 µM,0.016 µM,0.295 µM,0.213 µM,0.158 µM,0.0142 µM,< 0.01 µM
Cc1nc2ccc(Nc3nc(Cl)nc(N4CCOCC4)n3)cc2n1Cc1ccccc1,3.85 µM,> 100 µM,,,> 100 µM,3.58 µM,> 100 µM,> 100 µM,> 100 µM,> 100 µM,2.05 µM,16.2 µM,,,97.2 µM,1.85 µM,3.66 µM,18.2 µM,3.1 µM,3.27 µM
CC(C)C1=CC(=O)C(C)(C2C(O)CC3(C)C4CC=C5C(CCC(OC6OC(CO)C(O)C(O)C6OC6OC(C)C(O)C(O)C6O)C5(C)C)C4(C)C(=O)CC23C)O1 (stereo not drawn),> 100 µM,> 100 µM,,> 100 µM,> 100 µM,> 100 µM,> 100 µM,> 100 µM,> 100 µM,> 100 µM,,,,,,,,,,
Cc1cc2nc3c4cc(O)ccc4n(CCN(C)C)c3nc2cc1C,4.71 µM,12.4 µM,,11.2 µM,2.63 µM,2.47 µM,> 61 µM,12.3 µM,1.8 µM,> 100 µM,1.71 µM,0.676 µM,,0.377 µM,0.417 µM,0.828 µM,1.8 µM,0.609 µM,0.404 µM,1.28 µM

# — PubChem BioAssay (NCI)
